Reference: publication PMC11555678, “Improved Broad Spectrum Antifungal Drug Synergies with Cryptomycin, a Cdc50-Inspired Antifungal Peptide” (ACS Infectious Diseases, 2024)
Square brackets hold non-standard residues; d marks the D form. Peptide text beside a SMILES is read from it. * marks the point of attachment. Myristoyl = CCCCCCCCCCCCCC(=O)*; Orn = NCCC[C@H](N)C(=O)O

Experiments:
C. neoformans H99 = format: cell-based, Cryptococcus neoformans; details: 2× MIC, by 2 h, no rebound by 8 h; RPMI1640, 30 °C, 225 rpm, 2 million cfu/mL
Description: Culture tubes were prepared with aliquots of 2.0 mL of RPMI1640 (containing Q, MOPS, pH = 7, no phenol red). The tubes were sealed to prevent evaporation and were equilibrated with the incubation chamber overnight, at 30 °C. On the day of the experiment, overnight yeast cultures in YPD were washed twice with DD-H2O and resuspended in DD-H2O. The OD600 of the cell suspension was adjusted to 4.6, ≈2 × 10^6 cfu/mL, in DD-H2O. A 200 μL aliquot of adjusted cell suspension was added systematically to each tube, followed by 200 μL sampling for the 0 h time point. Immediately after sampling, the antifungal compounds were added, and the tubes were placed in the incubator at 30 °C with shaking at 225 rpm. The sampled aliquot was transferred to a 96-well plate and serially diluted six times, 10-fold each time. The resulting cell suspensions were spotted onto YPD plates in a grid pattern of 5 μL per spot. Subsequently, tubes were briefly removed from the incubator, and 100 μL aliquots were sampled at 2, 4, 6, and 8 h time points. Cells were counted on the YPD plates at either 24 or 48 h after plate spotting, depending on when the colonies were countable. Images of the YPD plates were recorded on the Bio-Rad Gel imager after 48 h of incubation at 30 °C. […] 2 C = number of colonies counted, Df = dilution factor = 10^n–1, n = column that the cells were counted, and Vf = volume factor = 1/0.005 mL.

[1] = test system: C. neoformans H99 and cdc50Δ; assay: Intracellular calcium measurement (Fluo-3AM, flow cytometry); format: cell-based, Cryptococcus neoformans; details: YPD, remained elevated for the 60 min time course
Description: Intracellular calcium measurement was carried out in accordance with previously reported methodologies.[35] Yeast cells were sub cultured ON in YPD, and the next day cells were washed twice in D-Hanks (0.4 g/Liter KCl, 0.06 g/Liter KH2PO4, 8.0 g/Liter NaCl, 0.35 g/Liter NaHCO3, 0.06 g/Liter Na2HPO4·7H2O) and adjusted to 1 × 10^7 cfu/mL in 5 mL D-Hanks. Fluo-3-AM stock solution in DMSO was diluted 1000-fold to operating stain concentration of 10 μM. Cells were stained in the dark for 30 min at 37 °C, 225 rpm, in a 12 mL culture tube. Stained cells were washed three times in D-Hanks and resuspended into a minimal amount of YPD or calcium-enriched YPD required to inoculate each condition. Each condition was prepared with three technical replicates. After inoculating 1 mL YPD with 0.2 mL cell suspension, 0.2 mL was aliquoted into a flow tube for the 0 min time point. The flow tube was placed on ice until flow analysis. […] To allow for sample processing for each time point, each set of replicates was inoculated and treated about 2 min apart. Subsequent 0.2 mL aliquots were drawn at 12, 24, 36, and 60 min for flow analysis. Live cells were analyzed using BD FACS via 100,000 events were collected, and singlets were gated for each sample. The mean fluorescence of the singlets was recorded and plotted as a function of […].

[2] = test system: C. neoformans in macrophage J774 cells; assay: Macrophage killing assay; format: cell-based, Cryptococcus neoformans / murine macrophage; details: yeast pretreated at sub-MIC for 30 min; 2 or 4 h coincubation
Description: Macrophage killing assay was carried out in accordance with previously reported protocols.[23],[69] After the cell line was activated from −80 °C stock and passaged several times, the cells were washed and resuspended in fresh DMEM + FBS at 1 × 10^5 cell/mL. Each well in a 3 column by 6 row grid in a 48-well plate was charged with 0.5 mL of cell suspension, approximately 50,000 cell/well. Macrophages were grown ON at 37 °C in a tissue culture incubator and were further activated with LPS. Yeast cells were grown ON using standard conditions. Fungal cells were washed twice with H2O, resuspended in PBS, and adjusted to 2.4 × 10^6 cfu/mL in 5 mL RPMI. […] Treated cells were transferred to a 1.5 mL Eppendorf tube, pelleted, and resuspended in 100 μL of 20% mouse compliment in PBS for opsonization. Prior to inoculating the wells with yeast cells for coincubation, the opsonized cells were diluted by an additional 20% with PBS. Each well was inoculated with 10 μL of cell suspension. Cocultures were prepared using three technical replicates. The 48-well plates were inoculated about 30 min apart to allow time to process each plate during the experiment. After 2 h of coincubation, each well was washed three times with 200 μL of warm DMEM + penstrep. […]

[3] = test system: C. neoformans with macrophage J774 cells; assay: Phagocytosis assay; format: cell-based, Cryptococcus neoformans / murine macrophage; details: sub-MIC peptide-treated yeast cells coincubated with macrophages for 2 h
Description: The J774A. I macrophage-like cell line (ATCC# TIB-67) was grown in DMEM supplemented with 10% FBS, 5% penstrep, and L-glutamine (1×), and passed 2–3 times per week. The cells were never used after 5 passages. Phagocytosis assay was performed in a 48-well plate using J774 cells (5 × 10^4) in 0.5 mL of fresh DMEM were added to each well and incubated at 37 °C, 5% CO2. To activate the macrophages, 50 units/mL interferon γ (IFN-γ; Invitrogen) and 1 μg/mL lipopolysaccharide (LPS; Sigma) were added to each well. Yeast cells were adjusted to 2.4 × 10^6 cfu/mL in RPMI1640. One mL of cell suspension was aliquoted into a 12 mL vented culture tube. The peptide was added to each tube, and the cells were incubated for 30 min at 30 °C, 225 rpm. The cells were pelleted and resuspended in 100 μL of 20% mouse compliment in PBS. The cells were opsonized at room temperature for 30 min. After opsonization, 10 μL of cell suspension was added to each well. Yeast cells were coincubated with macrophages for 2 h at 37 °C in 5% CO2 in technical triplicates per condition. After coincubation, the supernatant was removed, and the wells were washed 3 times with 200 μL DMEM + penstrep, and then fixed with 200 μL ice cold methanol for 30 min. […] The images were quantified using phagocytosis rate, % phagocytosis, and phagocytic index, eqs 3–5, between 200 and 300 macrophages were counted per technical replicate [drawing 3] […]

`CCCCCCCCCCCCCC(=O)N[C@@H](Cc1c[nH]c2ccccc12)C(=O)NCC(=O)NCC(=O)N[C@H](C(=O)N[C@@H](CCCN)C(=O)N[C@@H](CCCN)C(=O)N[C@@H](CC(N)=O)C(=O)N[C@@H](Cc1ccc(O)cc1)C(=O)N[C@@H](C)C(N)=O)[C@@H](C)CC` [KKOO-NH2] (Myristoyl-WGGI[Orn][Orn]NYA-NH2) was tested, and the Cryptococcus cells killed (C. neoformans H99) was > 99.9%, the “time to difference in intracellular calcium signaling vs untreated cells” value [1] was ≤ 12 min and the “fungal proliferation inside macrophages vs untreated control” value [2] was “No statistically significant difference”. The “phagocytic index or phagocytosis rate vs control” value [3] was “No statistically significant differences”.
